Key:
[1] = tested on: L1 major capsid protein in CIN-612 rafts; assay: Immunostaining for L1 major capsid protein in CIN-612 raft cross-sections; assay type: cell-based; details: CIN-612 raft cultures, TPA treated; untreated showed no specific nuclear staining
Description: (§1) Raft cultures were grown for 16 days then harvested, fixed in paraformaldehyde, embedded in paraffin and sectioned for immunohistostaining.
In vivo expression of viral late genes is only detected in the highly differentiated suprabasal cells of infected tissue (Pfister, et al., 1987). Using antiserum to the HPV 16 L1 major capsid protein (Bedell, et al., 1991), which cross reacts with the L1 major capsid protein of various HPV types (Bedell, et al., 1991), the production of the L1 major capsid protein in the CIN-612 rafts grown with or without TPA treatment was determined. CIN-612 raft cross-sections were examined by immunostaining with the VECTASTAIN Elite ABC Kit (Vector Laboratories. Inc., Burlingame, Calif.) after treatment with antiserum against the major late capsid protein, L1.

CIN-612 cells = assay: Immunostaining for keratin 10 and filaggrin in CIN-612 raft cultures; assay type: cell-based
HPV 31b = assay: Virion production in CIN-612 raft cultures (electron microscopy, isopycnic gradient, Southern blot); assay type: cell-based, Human papillomavirus
Description: as §1
Raft tissue cross-sections were fixed with glutaraldehyde and stained with uranyl acetate. […] Virions were commonly observed in bilobulated koilocytic and dyskeratotic nuclei in which the nuclear chromatin had condensed at the nuclear envelope. At higher magnification the particles could be seen superimposed on heterochromatin, as is often seen in vivo. These particles are not seen in nuclei of untreated CIN-612 raft cultures. Virions approximately 54 nm in diameter were also prevalent in the stratum corneum of raft cultures. […] Similar results have been obtained with material from five separate experiments with different passages of CIN-612 cells.
Because infectious assays have not yet been developed for HPV, we sought to determine if the structures we observed in nuclei of CIN-612 cells were indeed virions. […]
Eight TPA-treated raft cultures were harvested and virions were isolated following a series of low speed and high speed centrifugations. […] Fractions from the bottom of the gradient through fractions determined positive for HPV 31b DNA by dot blot hybridization were dialyzed and examined by Southern blot hybridization. […]

[2] = CIN-612 rafts, 16 nM TPA, 16 to 24 h every four days, grown 16 days, immunostaining

Which results are given for `CCCCCCCCCCCCCC(=O)O[C@@H]1[C@@H](C)[C@@]2(O)[C@@H](C=C(CO)C[C@]3(O)C(=O)C(C)=C[C@@H]23)[C@@H]2C(C)(C)[C@]12OC(C)=O` [TPA, 12-O-tetradecanoylphorbol-13-acetate]?
nuclear staining with L1 antiserum (major late capsid protein) [1]: specific nuclear staining was seen in the stratum granulosum and in the stratum corneum; induction of differentiation (CIN-612 cells; CIN-612 raft cultures, 16 nM TPA in medium, 16 to 24 h every four days): Reproducible induction of differentiation; filaggrin expression (CIN-612 cells; [2]): strong expression of filaggrin was observed throughout the stratum granulosum and into the stratum corneum; keratin 10 expression (CIN-612 cells; [2]): expressed throughout most of the suprabasal layers, including the stratum corneum; expression of physiological markers of keratinocyte differentiation (CIN-612 cells; TPA added to media of organotypic (raft) cultures): increased expression; production of virions (HPV 31b; TPA added to media of organotypic (raft) cultures, electron microscopy): induced production of virions; yield of viral particles (HPV 31b; eight TPA-treated raft cultures, CsCl gradient fractions (lanes 7 and 8), estimated from copy number standards): at least 40 million
